Reference: patent publication US20250041282A1, “METHOD FOR TREATING INFLAMMATORY PULMONARY DISEASE” (FU JEN CATHOLIC UNIVERSITY, priority 2021, published 2025)

How the values were obtained:
[1] = tested on: RAW264.7 macrophages; assay: Cytokine protein array analysis of conditioned culture media; assay type: cell-based, mouse
Experimental: Cytokine array analysis was performed according to the procedure recommended by the Raybio mouse cytokine antibody array 4 (RayBiotech, Inc. Peachtree Corners, GA). This cytokine protein array was used to simultaneously determine the relative levels of 40 different cytokines, chemokines, and acute-phase proteins in a single sample. One hundred microliters of cell culture medium was used for each sample. The signal intensity in the membrane of the cytokine protein array was measured by using ImageJ software and is presented as a heat map drawn by using MultiExperiment Viewer (MeV V.4.9.0) software.
To distinguish the effect of various FJU-Cs on LPS-induced inflammation, the cell culture media of RAW264.7 macrophages treated with various conditions were harvested and analyzed by using a mouse cytokine antibody array (left panel of FIG. 3). The signal intensities on the array membranes were quantified by densitometry, and the changes in different cytokines are represented as a heat map (right panel of FIG. 3).

[2] = tested on: RAW264.7 macrophages; assay: ELISA of cytokines in cell culture media; assay type: cell-based, mouse
Experimental: RANTES (RayBiotech), IL-1β and IL-6 (eBioscience, San Diego, CA, USA) concentrations in cell culture media and mouse serum were measured using ELISA kits according to the manufacturer's instructions. The plates were measured at […] using an Epoch microplate spectrophotometer (BioTek Instruments, Winooski, VT, USA). The concentrations of RANTES, IL-1β and IL-6 in the samples were determined by standard curves.
For identifying the potential signaling pathways which regulate the secretion of IL-6 and RANTES induced by LPS stimulation, RAW264.7 macrophages were pretreated with various kinase inhibitors for 30 min and then stimulated with/without 100 ng/ml LPS for 24 h; the cell culture media was harvested for ELISA assay. […] (FIG. 6A). To investigate whether FJU-C28 could mediate the transcriptional activity of NF-κB (p65), the translocation of NF-κB p65 was examined in LPS-stimulated macrophages.

[3] = tested on: STAT3, smad3, TGF1β-induced alpha-SMA and fibronectin; assay: Immunoblot comparison of FJU-C28 with Pirfenidone; assay type: cell-based; conditions: versus Pirfenidone; FIGS. 10A-10C
Experimental: Further, a comparison between FJU-C28 and FDA-approved drug Pirfenidone for effects on STAT3 inhibition, smad3 activation, TGF1β-induced alpha-SMA and fibronectin expression are conducted. The results are shown in the quantitative immunoblot data in FIGS. 10A, 10B and 10C.

[4] = tested on: C57BL/6 mice with LPS-induced systemic inflammation; assay: Lung function in mice with LPS-induced systemic inflammation (Buxco); assay type: in vivo, mouse; conditions: FJU-C28 5 mg/kg, LPS 7.5 mg/kg, 24 hours
Experimental: Ten-week-old male C57BL/6 mice from BioLasco Taiwan Co., Ltd. (Taipei, Taiwan) were used in the present study. The mice were maintained under standard laboratory conditions as described in a previous study.^34 All animal procedures were approved by the Institutional Animal Care and Use Committee of Fu Jen Catholic University (IACUC approval number: A10508). We also confirmed that all experiments were performed in compliance with the ARRIVE guidelines. All surgeries were performed under anesthesia, and all efforts were made to minimize the pain and discomfort of the animals. The mice were randomly assigned to three groups: control (n=7), LPS (n=7) and LPS plus C28 (n=8). The mice were injected with/without FJU-C28 (5 mg/kg) dissolved in DMSO/PBS buffer, and after one hour the mice were stimulated with an intraperitoneal injection of LPS (7.5 mg/kg) in PBS buffer. At 24 hours after LPS stimulation, the mice were anesthetized i.p. with a mixture of ketamine (100 mg/kg) (Pfizer, New York, US) and xylazine (10 mg/kg) (Bayer, Leverkusen, Germany), endotracheally intubated with an airway catheter and connected to a forced pulmonary maneuver system (Buxco Research System; Buxco Electronics, Wilmington, NC). The detailed procedure was performed as described in a previous study.^34 The lung function values, including C chord (lung compliance), IC (inspiratory capacity), VC (vital capacity), FEV100 (forced expiratory volume at 100 ms) and FVC (forced vital capacity), were measured using a Buxco Research System. After the lung function assays, the experimental mice were sacrificed, and blood was collected by cardiac puncture. The lung lobes were inflated with 4% buffered paraformaldehyde via a catheter. Slides of lung specimens at a thickness of 5 μm were stained with hematoxylin and eosin for light microscopic analysis.
To evaluate the protective effect of FJU-C28 on lung function in mice with systemic inflammation induced by endotoxin, male C57BL/6 mice were administered LPS (7.5 mg/kg) and treated with/without FJU-C28 (5 mg/kg) for 24 hours; subsequently, lung function parameters were measured using a Buxco pulmonary function test system. […] However, treatment with FJU-C28 restored the LPS-induced decreases in lung function including VC (p<0.05), C chord, FEV100 (p<0.05), and FVC (p<0.05), compared to those of LPS-treated mice (FIG. 11). To confirm the status of LPS-induced lung injury in mice, histological examination of lung specimens was performed by H&E staining. […] To ascertain the correlation between target cytokines and lung injury, serum cytokines were measured by ELISA.

[5] = LPS-treated macrophages, cell culture media, FIG. 4C/4D

Structure (SMILES): C=CCC1CC(Sc2ccccc2)=CC(=O)N1C(=O)C=C (stereo not shown) [FJU-C28]
- LPS-induced secretion of TIMP1, IL-6 and IL-10 (array, in words) ([1]; FIG. 3): dramatically suppressed
- LPS-induced secretion/expression of RANTES (array, in words) ([1]; FIG. 3): dramatically suppressed
- Protein array, fold change (mean ± S.E.): BLC ([1]; LPS + compound / control): 1.3 ± 0.1 fold change
- Protein array, fold change (mean ± S.E.): CD30 L ([1]; LPS + compound / control): 1.6 ± 0.9 fold change
- Protein array, fold change (mean ± S.E.): Eotaxin ([1]; LPS + compound / control): 10.3 ± 6.1 fold change
- Protein array, fold change (mean ± S.E.): Eotaxin-2 ([1]; LPS + compound / control): 2.0 ± 1.0 fold change
- Protein array, fold change (mean ± S.E.): Fas ligand ([1]; LPS + compound / control): 1.1 ± 0.8 fold change
- Protein array, fold change (mean ± S.E.): Fractalkine ([1]; LPS + compound / control): 1.0 ± 0.6 fold change
- Protein array, fold change (mean ± S.E.): GCSF ([1]; LPS + compound / control): 20.1 ± 1.9 fold change
- Protein array, fold change (mean ± S.E.): GM-CSF ([1]; LPS + compound / control): 1.5 ± 0.4 fold change
- Protein array, fold change (mean ± S.E.): I-TAC ([1]; LPS + compound / control): 0.8 ± 0.3 fold change
- Protein array, fold change (mean ± S.E.): IL-1B ([1]; LPS + compound / control): 2.6 ± 0.0 fold change
- Protein array, fold change (mean ± S.E.): IL-1α ([1]; LPS + compound / control): 1.1 ± 0.1 fold change
- Protein array, fold change (mean ± S.E.): IL-2 ([1]; LPS + compound / control): 2.1 ± 0.2 fold change
- Protein array, fold change (mean ± S.E.): IL-3 ([1]; LPS + compound / control): 1.1 ± 0.2 fold change
- Protein array, fold change (mean ± S.E.): IL-4 ([1]; LPS + compound / control): 1.2 ± 0.2 fold change
- Protein array, fold change (mean ± S.E.): IL-6 ([1]; LPS + compound / control): 1.1 ± 0.2 fold change
- Protein array, fold change (mean ± S.E.): IL-9 ([1]; LPS + compound / control): 0.9 ± 0.3 fold change
- Protein array, fold change (mean ± S.E.): IL-10 ([1]; LPS + compound / control): 0.3 ± 0.2 fold change
- Protein array, fold change (mean ± S.E.): IL-12 p70 ([1]; LPS + compound / control): 0.8 ± 0.2 fold change
- Protein array, fold change (mean ± S.E.): IL-12 p-40 p70 ([1]; LPS + compound / control): 0.9 ± 0.1 fold change
- Protein array, fold change (mean ± S.E.): IL-13 ([1]; LPS + compound / control): 0.6 ± 0.0 fold change
- Protein array, fold change (mean ± S.E.): IL-17 ([1]; LPS + compound / control): 7.8 ± 5.3 fold change
- Protein array, fold change (mean ± S.E.): INF gamma ([1]; LPS + compound / control): 1.4 ± 0.2 fold change
- Protein array, fold change (mean ± S.E.): KC ([1]; LPS + compound / control): 0.8 ± 0.4 fold change
- Protein array, fold change (mean ± S.E.): LIX ([1]; LPS + compound / control): 1.0 ± 0.2 fold change
- Protein array, fold change (mean ± S.E.): Leptin ([1]; LPS + compound / control): 3.2 ± 0.8 fold change
- Protein array, fold change (mean ± S.E.): Lymphotactin ([1]; LPS + compound / control): 0.7 ± 0.2 fold change
- Protein array, fold change (mean ± S.E.): MCP-1 ([1]; LPS + compound / control): 1.7 ± 0.2 fold change
- Protein array, fold change (mean ± S.E.): MCSF ([1]; LPS + compound / control): 0.8 ± 0.1 fold change
- Protein array, fold change (mean ± S.E.): MIP-1α ([1]; LPS + compound / control): 1.0 ± 0.2 fold change
- Protein array, fold change (mean ± S.E.): MIP-1γ ([1]; LPS + compound / control): 1.2 ± 0.2 fold change
- Protein array, fold change (mean ± S.E.): RANTES ([1]; LPS + compound / control): 1.3 ± 0.2 fold change
- Protein array, fold change (mean ± S.E.): SDF1 ([1]; LPS + compound / control): 0.9 ± 0.2 fold change
- Protein array, fold change (mean ± S.E.): STNFRI ([1]; LPS + compound / control): 1.0 ± 0.0 fold change
- Protein array, fold change (mean ± S.E.): STNFRII ([1]; LPS + compound / control): 2.1 ± 0.1 fold change
- Protein array, fold change (mean ± S.E.): TCA-3 ([1]; LPS + compound / control): 0.9 ± 0.1 fold change
- Protein array, fold change (mean ± S.E.): TECK ([1]; LPS + compound / control): 0.5 ± 0.3 fold change
- Protein array, fold change (mean ± S.E.): TIMP-1 ([1]; LPS + compound / control): 1.1 ± 0.1 fold change
- Protein array, fold change (mean ± S.E.): TIMP-2 ([1]; LPS + compound / control): 0.0 ± 0.0 fold change
- Protein array, fold change (mean ± S.E.): TNFα ([1]; LPS + compound / control): 21.0 ± 0.8 fold change
- production of IL-1β (ELISA) [2, 5]: dramatically reduced
- production of IL-6 (ELISA) [2, 5]: dramatically reduced
- LPS-induced expression of RANTES (ELISA) ([2]; at 6 hours or 24 hours, FIG. 4A): dramatically suppressed
- inhibition of STAT3 [3]: more significant than that of Pirfenidone
- inhibition of TGF1β-induced alpha-SMA expression [3]: more significant than that of Pirfenidone
- inhibition of TGF1β-induced fibronectin expression [3]: more significant than that of Pirfenidone
- inhibition of smad3 [3]: more significant than that of Pirfenidone
- forced expiratory volume at 100 ms (FEV100) ([4]; p<0.05 vs LPS-treated mice): restored
- forced vital capacity (FVC) ([4]; p<0.05 vs LPS-treated mice): restored
- vital capacity (VC) ([4]; p<0.05 vs LPS-treated mice): restored
- lung compliance (C chord) ([4]; vs LPS-treated mice): restored
